Experiments:
[1] = target: T1, Poly [ADP-ribose] polymerase tankyrase-2 (Homo sapiens, UniProt Q9H2K2); assay: Inhibition of TNKS2 (unknown origin) expressed in HEK293 cells assessed as inhibition of Wnt3a-induced Wnt/beta-catenin signaling after 24 hrs by luciferase reporter gene assay; type: cell-based
T1 sequence (Q9H2K2 whole entry): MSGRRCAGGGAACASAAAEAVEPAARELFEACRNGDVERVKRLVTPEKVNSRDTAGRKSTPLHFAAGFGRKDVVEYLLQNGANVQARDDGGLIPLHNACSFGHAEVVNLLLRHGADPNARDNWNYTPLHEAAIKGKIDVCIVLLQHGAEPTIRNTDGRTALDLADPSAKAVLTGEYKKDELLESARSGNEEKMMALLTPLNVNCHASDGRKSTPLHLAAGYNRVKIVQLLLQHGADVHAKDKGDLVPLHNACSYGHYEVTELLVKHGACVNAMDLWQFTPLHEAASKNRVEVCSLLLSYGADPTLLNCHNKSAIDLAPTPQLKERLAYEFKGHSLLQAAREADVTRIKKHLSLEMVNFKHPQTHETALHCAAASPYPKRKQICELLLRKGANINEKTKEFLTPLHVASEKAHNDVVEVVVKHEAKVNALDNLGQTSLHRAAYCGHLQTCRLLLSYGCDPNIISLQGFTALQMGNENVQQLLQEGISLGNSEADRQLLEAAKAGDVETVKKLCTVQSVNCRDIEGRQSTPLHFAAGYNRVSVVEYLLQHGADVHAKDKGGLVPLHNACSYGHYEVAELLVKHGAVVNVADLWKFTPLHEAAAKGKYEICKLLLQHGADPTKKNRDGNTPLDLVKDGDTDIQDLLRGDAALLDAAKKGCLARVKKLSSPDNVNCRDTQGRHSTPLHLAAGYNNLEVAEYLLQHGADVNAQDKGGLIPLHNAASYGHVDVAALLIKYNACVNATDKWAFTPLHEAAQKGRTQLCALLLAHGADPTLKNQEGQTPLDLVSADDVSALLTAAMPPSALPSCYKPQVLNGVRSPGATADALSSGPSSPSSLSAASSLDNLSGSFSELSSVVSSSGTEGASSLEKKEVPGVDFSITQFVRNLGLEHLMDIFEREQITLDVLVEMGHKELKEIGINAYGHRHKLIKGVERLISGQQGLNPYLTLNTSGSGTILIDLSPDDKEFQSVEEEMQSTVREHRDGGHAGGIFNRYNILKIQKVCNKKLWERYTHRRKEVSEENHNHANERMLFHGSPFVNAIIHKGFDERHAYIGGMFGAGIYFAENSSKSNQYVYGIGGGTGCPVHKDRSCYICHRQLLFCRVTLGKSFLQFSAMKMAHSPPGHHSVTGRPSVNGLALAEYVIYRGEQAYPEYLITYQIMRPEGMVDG

[2] = target: T1, Poly [ADP-ribose] polymerase tankyrase-2; assay: Inhibition of human TNKS2 (873 to 1162 residues) assessed as reduction in NAD+ consumption by fluorescence assay

For `N#Cc1ccc2c(c1)[nH]c(=O)n2-c1ccc(-c2nnc(-c3ccncn3)n2-c2ccccc2Cl)cc1`, the IC50 [1] was greater than 10000 nM and the IC50 [2] was 340 nM.

Reference: ChEMBL document CHEMBL4028904, “Discovery of a Novel Series of Tankyrase Inhibitors by a Hybridization Approach” (J Med Chem, 2017)
